Experimental data from publication PMC9696974 (Pharmaceutics, 2022).
Read-outs that look alike come from different tables or passages of the source.

Experiments:
[1] = system: poly dAdT-poly dAdT; assay: Thermal denaturation of poly dAdT-poly dAdT (∆Tm); format: binding; conditions: I = 50 mM
Method: (§1) Experiments were conducted in an aqueous buffer solution (pH = 7.0 or pH= 5.0, I = 0.05 M, sodium cacodylate buffer). For the UV-Vis spectra were used Varian Cary 100 Bio spectrometer, for fluorescence spectra we used the Varian Cary Eclipse fluorimeter and for CD spectra we used the JASCO J815 spectropolarimeter, all conducted at 25.0 °C using appropriate quartz cuvettes (path length: 1 cm).
(§2) Polynucleotides were purchased as noted: poly dAdT-poly dAdT, poly dGdC-poly dGdC, poly A-poly U (ds-RNA), (Sigma-Aldrich, Schnelldorf, Germany), calf thymus (ct)-DNA (Sigma-Aldrich, Schnelldorf, Germany) and dissolved in sodium cacodylate buffer, I = 0.05 M, pH = 7.0. The ct-DNA was sonicated and filtered through a 0.45 µm filter to obtain mostly short (ca. 100 base pairs) rod-like B-helical DNA fragments. The concentration of DNA or RNA was determined spectroscopically as the c(nucleobase) using producer-provided molar extinction coefficients.
(§3) Thermal denaturation of ds-DNA, ds-RNA and their complexes with studied compounds was performed by monitoring the absorption change at 260 nm as a function of temperature. Tm values are the midpoints of the transition curves determined from the maximum of the first derivative and checked graphically by the tangent method. The ∆Tm values were calculated by subtracting the Tm of the free nucleic acid from the Tm of the complex. Every ∆Tm value here reported was the average of at least two measurements. The error in ∆Tm is ± 0.5 °C.

[2] = system: pApU (poly A-poly U, ds-RNA); assay: Thermal denaturation of pApU ds-RNA (∆Tm); format: binding; conditions: I = 50 mM
Method: as §1, §2, §3

[3] = target: AT-DNA (poly dAdT-poly dAdT); assay: Fluorimetric titration with AT-DNA, Scatchard equation; format: binding; conditions: pH 7, sodium cacodylate buffer, I = 0.05 M
Method: as §1, §2
Fortunately, strong emission from the compounds studied allowed fluorimetric titrations to be performed at much lower concentrations of the dyes (c = 5 × 10^−8 M), thus preventing precipitation of non-methylated 1 or 2, and allowing for the collection of numerous data points at excess of DNA/RNA binding sites over c(dye). […]

[4] = system: A549 cells; assay: Confocal time-lapse imaging under irradiation; format: cell-based, human; conditions: A549, 1 µM (Figure 9), irradiated at 350 nm
Method: Cells were left in the cell incubator for 90 min to allow the compound to enter the cells. After incubation, the medium was replaced with 500 μL of fresh medium. […]

[5] = system: A549 cells; assay: Mitochondrial ROS (MitoSOX Red); format: cell-based, human; conditions: A549, 1 µM plus UV irradiation, vs DMSO and 1M alone
Method: For measuring mitochondrial ROS, A549 cells were treated with 1 μM of the respective compound and incubated for 90 min (37 °C, 5% CO2), allowing the compound to enter to cells. Mitochondrial superoxide production was assessed with MitoSOX Red reagent (Thermo Fisher Scientific, Waltham, MA). The cells were washed with PBS and trypsinized, and then kept on ice unless otherwise specified. Cells were distributed into small tubes (3 × 10^5 cells per tube) and resuspended in 5 µM MitoSOX solution prepared in PBS. The cells were incubated on a thermomixer for 30 min at 37 °C, with shaking (300 rpm), in the dark, followed by two washes with PBS. Then, cells dyed with MitoSOX were re-suspended in 400 µL of PBS and distributed into black 96-well plates, 120 µL per well (in triplicate). A Tecan Infinite 200 fluorescence microplate reader with 485/520 and 520/590 nm excitation/emission wavelengths was used to measure MitoSOX fluorescence.

[6] = system: ct-DNA; design: method as in PMID 33231335; conditions: I = 50 mM, cited from earlier work
[7] = system: poly dAdT-poly dAdT (AT-DNA, p(dAdT)2) (DNA, polymer) AT; assay: UV thermal denaturation at 260 nm; conditions: Na+ (sodium cacodylate, I = 50 mM); pH 7.0; r = [compound]/[polynucleotide] = 0.2; error ± 0.5 °C; per base
[8] = system: poly dGdC-poly dGdC (GC-DNA, p(dGdC)2) (DNA, polymer) GC; assay: fluorimetric titration, Scatchard; conditions: Na+ (sodium cacodylate, I = 0.05 M); pH 7.0, 25 °C; Scatchard n fixed at 0.2 or 0.3; per base
[9] = pKa from pH dependence of UV/vis spectrum; format: physicochemical; conditions: water (0.001 M HCl in miliQ water, titrated with NaOH), UV/vis spectra vs pH in water, c = 2.0 × 10^−5 M
[10] = Solubility in water; format: physicochemical
[11] = r = 0.2, pH 7.0, sodium cacodylate buffer
[12] = r = 0.3, pH 7.0, sodium cacodylate buffer

Compound	∆Tm Poly dAdT-Poly dAdT [1, 11] [°C]	∆Tm Poly dAdT-Poly dAdT [1, 12] [°C]	∆Tm pApU [2, 11] [°C]	∆Tm pApU [2, 12] [°C]	Binding constant logKs AT-DNA [3]	Cell morphology under continuous irradiation [4]	mtROS levels (MitoSOX Red) [5]	∆Tm ct-DNA [6, 11]	∆Tm ct-DNA [6, 12]	∆Tm [7] [°C]	logKs [8]	pKa [9]	Solubility in water [10]
C[n+]1ccc(-c2cc3ccc4cccc5ccc(c2)c3c45)cc1 [1M, 2-para-N-methylpyridinium pyrene]	8	9	3	3	5.9	swelling and even blebbing morphology	significantly increased mtROS levels	^c 2 °C	^c 2 °C	8	7.0	–	–
C[n+]1ccc(-c2cc3ccc4cc(-c5cc[n+](C)cc5)cc5ccc(c2)c3c45)cc1 [2M]	31	33	4	–	7.1	swelling and even blebbing morphology	–	–	–	31	9.1	–	–
c1cc2ccc3cc(-c4ccncc4)cc4ccc(c1)c2c34 [compound 1]	–	–	–	–	–	–	–	–	–	–	–	~5	poorly soluble in water
